# Measurements as given in the supplement of paper PMC8149375.
# Legend:
# Details in all cases: treatment: drug + dasatinib (fixed dose, not stated); 5 days
# UO-31 [1] = assay: AUC of dose-response viability curve, drug + dasatinib, normalised to DMSO (arbitrary (AUC of normalised viability)); higher = less growth inhibition
# Method: (§1)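 Primary HTS combination arm: 8 RCC cell lines treated with 8 doses (up to 10 uM) of each library drug plus a fixed dose of dasatinib (dose not stated) for 5 days; viability read by CellTiter-Glo and normalised to DMSO. GI50 was fitted with XLfit, AUC is the area under the dose-response curve, and minimum viability is the lowest fraction of DMSO viability across doses.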
# TK-10 [2] = assay: as above
# Method: as §1
# A498 [3] = assay: as above
# Method: as §1
# 769-P [4] = assay: as above
# Method: as §1
# 786-O [5] = assay: as above
# Method: as §1
# ACHN [6] = assay: as above
# Method: as §1
# SN12C [7] = assay: as above
# Method: as §1
# CAKI-1 [8] = assay: as above
# Method: as §1
# UO-31 [9] = assay: GI50 of drug in presence of dasatinib; higher = less potent
# Method: as §1
# TK-10 [10] = assay: as above
# Method: as §1
# A498 [11] = assay: as above
# Method: as §1
# 769-P [12] = assay: as above
# Method: as §1
# 786-O [13] = assay: as above
# Method: as §1
# ACHN [14] = assay: as above
# Method: as §1
# SN12C [15] = assay: as above
# Method: as §1
# CAKI-1 [16] = assay: as above
# Method: as §1
# UO-31 [17] = assay: minimum viability across doses, drug + dasatinib, relative to DMSO (fraction); higher = less growth inhibition
# Method: as §1
# TK-10 [18] = assay: as above
# Method: as §1
# A498 [19] = assay: as above
# Method: as §1
# 769-P [20] = assay: as above
# Method: as §1
# 786-O [21] = assay: as above
# Method: as §1
# ACHN [22] = assay: as above
# Method: as §1
# SN12C [23] = assay: as above
# Method: as §1
# CAKI-1 [24] = assay: as above
# Method: as §1
Structure (SMILES),GI50 of drug (786-O [13]),GI50 of drug (ACHN [14]),AUC of dose-response viability curve (UO-31 [1]),AUC of dose-response viability curve (TK-10 [2]),AUC of dose-response viability curve (A498 [3]),AUC of dose-response viability curve (769-P [4]),AUC of dose-response viability curve (786-O [5]),AUC of dose-response viability curve (ACHN [6]),AUC of dose-response viability curve (SN12C [7]),AUC of dose-response viability curve (CAKI-1 [8]),GI50 of drug (UO-31 [9]),GI50 of drug (TK-10 [10]),GI50 of drug (A498 [11]),GI50 of drug (769-P [12]),GI50 of drug (SN12C [15]),GI50 of drug (CAKI-1 [16]),minimum viability across doses (UO-31 [17]),minimum viability across doses (TK-10 [18]),minimum viability across doses (A498 [19]),minimum viability across doses (769-P [20]),minimum viability across doses (786-O [21]),minimum viability across doses (ACHN [22]),minimum viability across doses (SN12C [23]),minimum viability across doses (CAKI-1 [24])
COc1cc2ncnc(Nc3ccc(F)c(Cl)c3)c2cc1NC(=O)/C=C/CN1CCCCC1 + Cc1nc(Nc2ncc(C(=O)Nc3c(C)cccc3Cl)s2)cc(N2CCN(CCO)CC2)n1 [dasatinib],< 3 nM,< 3 nM,2.31,1.46,2.74,1.25,1.02,0.908,1.81,1.63,1160 nM,53.6 nM,2350 nM,25.5 nM,567 nM,485 nM,0.0145,0.00803,0.0146,0.00783,0.0063,0.00207,0.00664,0.00568
C[C@@H](Oc1cc(-c2cnn(C3CCNCC3)c2)cnc1N)c1c(Cl)ccc(F)c1Cl + Cc1nc(Nc2ncc(C(=O)Nc3c(C)cccc3Cl)s2)cc(N2CCN(CCO)CC2)n1 [dasatinib],798 nM,475 nM,2.11,2.65,2.68,2.43,2.22,1.81,1.98,1.91,539 nM,3550 nM,3260 nM,2260 nM,748 nM,837 nM,0.0115,0.149,0.284,0.0606,0.00845,0.0735,0.175,0.0151
COc1cc2c(Oc3ccc(NC(=O)C4(C(=O)Nc5ccc(F)cc5)CC4)cc3F)ccnc2cc1OCCCN1CCOCC1 + Cc1nc(Nc2ncc(C(=O)Nc3c(C)cccc3Cl)s2)cc(N2CCN(CCO)CC2)n1 [dasatinib],496 nM,112 nM,1.95,1.94,2.47,1.78,1.65,1.36,1.56,1.48,393 nM,558 nM,1430 nM,458 nM,226 nM,135 nM,0.011,0.00508,0.0345,0.00976,0.00858,0.00242,0.0105,0.00437
O=C1NC(=O)/C(=C/c2ccc3nccc(-c4ccncc4)c3c2)S1 + Cc1nc(Nc2ncc(C(=O)Nc3c(C)cccc3Cl)s2)cc(N2CCN(CCO)CC2)n1 [dasatinib],136 nM,101 nM,2.17,2.17,2.01,1.8,1.53,1.45,1.76,1.29,500 nM,930 nM,383 nM,294 nM,304 nM,75 nM,0.0612,0.318,0.138,0.261,0.00524,0.108,0.243,0.0502
COc1ncc(-c2ccc3nccc(-c4ccnnc4)c3c2)cc1NS(=O)(=O)c1ccc(F)cc1F + Cc1nc(Nc2ncc(C(=O)Nc3c(C)cccc3Cl)s2)cc(N2CCN(CCO)CC2)n1 [dasatinib],4.97 nM,8.21 nM,0.993,0.955,1.82,0.957,0.564,0.822,1.1,0.66,28.1 nM,16.5 nM,168 nM,18.4 nM,19 nM,7.86 nM,0.00632,0.0271,0.158,0.0228,0.00295,0.0717,0.104,0.00939
CC(C)(C)c1nc(-c2cccc(NS(=O)(=O)c3c(F)cccc3F)c2F)c(-c2ccnc(N)n2)s1 + Cc1nc(Nc2ncc(C(=O)Nc3c(C)cccc3Cl)s2)cc(N2CCN(CCO)CC2)n1 [dasatinib],30.8 nM,134 nM,3.99,2,4.08,2.36,1.49,1.51,2.61,1.48,> 10000 nM,563 nM,> 10000 nM,> 10000 nM,> 10000 nM,121 nM,0.58,0.3,1.01,0.55,0.184,0.113,0.684,0.0739
CCc1cc(Nc2nccc(-c3c(-c4ccc(OC)c(C(=O)Nc5c(F)cccc5F)c4)nc4ccccn34)n2)c(OC)cc1N1CCC(N2CCN(S(C)(=O)=O)CC2)CC1 + Cc1nc(Nc2ncc(C(=O)Nc3c(C)cccc3Cl)s2)cc(N2CCN(CCO)CC2)n1 [dasatinib],> 10000 nM,> 10000 nM,3.28,2.59,3.42,2.19,2.71,1.97,2.4,2.19,> 10000 nM,> 10000 nM,> 10000 nM,3100 nM,> 10000 nM,3060 nM,0.86,0.678,0.849,0.445,0.641,0.488,0.644,0.406
C#Cc1cccc(Nc2ncnc3cc(OCCOC)c(OCCO)cc23)c1 + Cc1nc(Nc2ncc(C(=O)Nc3c(C)cccc3Cl)s2)cc(N2CCN(CCO)CC2)n1 [dasatinib],> 10000 nM,3.94 nM,4.6,2.1,3.63,2.11,2.72,1.13,2.43,2.09,9830 nM,1300 nM,> 10000 nM,760 nM,> 10000 nM,1010 nM,0.439,0.323,0.973,0.301,0.489,0.108,0.415,0.125
Cn1cc(C2=C(c3cn(C4CCN(Cc5ccccn5)CC4)c4ccccc34)C(=O)NC2=O)c2ccccc21 + Cc1nc(Nc2ncc(C(=O)Nc3c(C)cccc3Cl)s2)cc(N2CCN(CCO)CC2)n1 [dasatinib],> 10000 nM,> 10000 nM,3.35,2.85,3.04,2.27,2.71,2.28,2.38,2.2,6320 nM,> 10000 nM,> 10000 nM,> 10000 nM,> 10000 nM,> 10000 nM,0.341,0.667,0.817,0.571,0.636,0.566,0.62,0.585

# More lines, main results first:
GI50 of drug (786-O [13]),GI50 of drug (ACHN [14]),Structure (SMILES),AUC of dose-response viability curve (UO-31 [1]),AUC of dose-response viability curve (TK-10 [2]),AUC of dose-response viability curve (A498 [3]),AUC of dose-response viability curve (769-P [4]),AUC of dose-response viability curve (786-O [5]),AUC of dose-response viability curve (ACHN [6]),AUC of dose-response viability curve (SN12C [7]),AUC of dose-response viability curve (CAKI-1 [8]),GI50 of drug (UO-31 [9]),GI50 of drug (TK-10 [10]),GI50 of drug (A498 [11]),GI50 of drug (769-P [12]),GI50 of drug (SN12C [15]),GI50 of drug (CAKI-1 [16]),minimum viability across doses (UO-31 [17]),minimum viability across doses (TK-10 [18]),minimum viability across doses (A498 [19]),minimum viability across doses (769-P [20]),minimum viability across doses (786-O [21]),minimum viability across doses (ACHN [22]),minimum viability across doses (SN12C [23]),minimum viability across doses (CAKI-1 [24])
102 nM,1920 nM,CC1(COc2ccc3c(c2)ncn3-c2ccc3cccc(N4CCC(N)CC4)c3n2)COC1 + Cc1nc(Nc2ncc(C(=O)Nc3c(C)cccc3Cl)s2)cc(N2CCN(CCO)CC2)n1 [dasatinib],2.77,2.42,2.83,1.8,1.64,1.96,2.14,1.9,2230 nM,3330 nM,2540 nM,1710 nM,1280 nM,928 nM,0.0108,0.181,0.0198,0.222,0.00575,0.0128,0.0349,0.192
28.4 nM,73.7 nM,CCn1cc(-c2ccnc3[nH]c(-c4cccc(CN(C)C)c4)cc23)c(-c2ccc(NC(=O)N(C)C)cc2)n1 + Cc1nc(Nc2ncc(C(=O)Nc3c(C)cccc3Cl)s2)cc(N2CCN(CCO)CC2)n1 [dasatinib],3.82,2.03,2.97,2.05,1.39,1.33,1.61,1.42,2870 nM,635 nM,2170 nM,785 nM,128 nM,96.9 nM,0.0175,0.0524,0.131,0.0742,0.0106,0.00393,0.00824,0.0134
3.6 nM,3.94 nM,CCc1cnn2c(NCc3ccc[n+]([O-])c3)cc(N3CCCC[C@H]3CCO)nc12 + Cc1nc(Nc2ncc(C(=O)Nc3c(C)cccc3Cl)s2)cc(N2CCN(CCO)CC2)n1 [dasatinib],0.771,1.11,0.592,0.787,0.357,0.506,0.562,0.562,15.1 nM,14.1 nM,11.9 nM,16.7 nM,11.5 nM,7.08 nM,0.0088,0.169,0.00891,0.0174,0.00583,0.00901,0.0087,0.0412
158 nM,26.3 nM,Cc1nc(Nc2ncc(C(=O)Nc3c(C)cccc3Cl)s2)cc(N2CCN(CCO)CC2)n1 + Cc1nc(Nc2ncc(C(=O)Nc3c(C)cccc3Cl)s2)cc(N2CCN(CCO)CC2)n1 [dasatinib],1.44,1.04,2.62,1.22,1.71,1.18,2.21,1.03,65.6 nM,18.8 nM,8460 nM,38.2 nM,2300 nM,23.6 nM,0.0492,0.0619,0.413,0.0465,0.0726,0.0702,0.422,0.0256
686 nM,434 nM,CNC(=O)c1c(F)cccc1Nc1nc(Nc2cc3c(cc2OC)CCN3C(=O)CN(C)C)nc2[nH]ccc12 + Cc1nc(Nc2ncc(C(=O)Nc3c(C)cccc3Cl)s2)cc(N2CCN(CCO)CC2)n1 [dasatinib],3.45,2.17,3.85,1.96,1.84,1.62,2.11,1.87,2920 nM,1660 nM,8320 nM,1300 nM,1520 nM,919 nM,0.0173,0.189,0.015,0.0146,0.00553,0.0022,0.004,0.00312
